Data reported in EP0380370A2, “Inhibiting tumour recurrence after surgical resection” (The Children's Medical Center Corporation, priority 1989, dated 1990).
Where two headings read alike, the source gives them in different places. Where a SMILES comes first, the peptide text is derived from it.

Key:
[1] = test system: B16-F10; test: reversibility test: unattached cells washed and replated on gelatinized plates in new medium; format: cell-based; conditions: cells replated in fresh medium in new dishes
Protocol: In order to determine whether inhibition of cell attachment was non-toxic and reversible with any particular agent, the tumor cells were incubated in the presence of the agent and unattached cells collected, washed twice with serum containing medium, and replated on gelatinized well plates in new culture medium. Control cells were handled in a similar manner, except that they were removed from wells 16 hours after incubation by trypsinization. After incubation for 4-16 hours, the medium was aspirated, the wells washed twice with 200 microliters of PBS, and the remaining attached cells trypsinized and counted with a Coulter counter.

[2] = test system: B16-F10; test: in vitro tumor cell attachment assay on gelatinized culture plates (acid phosphatase colorimetric readout); format: cell-based
Protocol: The following two examples of assays for suitable agents are designed to approximate a wound environment, and thus act as quick tests for suitable agents for practical use in particular circumstances. These assays are not limiting to the application. One example of an in vitro assay for determining the effect of one of the above agents on tumor cell attachment was performed as follows. Gelatinized 96-well tissue culture plates (Co-star, Cambridge, MA) were prepared by treating a standard culture plate with 100 microliters of 1.5% gelatin (Difco, Detroit, MI) in phosphate-buffered saline (PBS) and incubating the plate at 37°C for at least 24 hours. The solution was then aspirated and the cells washed twice with 200 microliters of PBS prior to use. Test agents were diluted in Dulbecco's Modified Eagles Medium (DMEM; Gibco Laboratories, Grand Island, NY) containing 10% fetal calf serum (FCS; Gibco), and 100 microliters of the diluted agent added to each well. […] The cells were grown in DMEM supplemented with 10% FCS, 2 mM glutamine and 100 units per ml penicillin and streptomycin.
After the cells and agent were incubated, the medium was aspirated from each well and the well washed twice with 200 microliters of PBS. […] Briefly, 100 microliters of an acid phosphatase reagent (0.1M sodium acetate, 0.01M p-nitrophenyl phosphate, 0.1% Triton-X 100) was added to each well, the plates incubated at 37°C for two hours, and 10 microliters 1N NaOH added to each well. The optical density of each well was read at 405nm on a Biotek ELISA reader. The optical density is directly related to cell number. The results were expressed as percent of optical density in untreated control wells,and represent the mean of at least three wells.

[3] = test system: B16-F10 melonoma; format: in vivo, C57 B1/6 mice
Protocol: Inhibitors of tumor cell attachment in vivo are tested by their ability to block tumor cell attachment in a surgical wound. Wounds were made on the backs of C57 B1/6 mice (Charles River Laboratories, Wilmington, MA) using aseptic procedures under methoxyflurane anesthesia (Pittman-Moore Inc., Washington Crossing, NJ). […] The scissors were used to create a lateral subcutaneous pocket off a dorsal mid-line wound in an uncontaminated animal. Prior to use, the scissors were inspected to insure that no visible tissue was present on them. Prior to closure, the wounds were vigorously irrigated with 3ml of Ringers lactate supplemented with a chosen agent. Excess fluid was then expressed and the wound closed with skin clips.

[4] = test system: cancer cells; conditions: cited from earlier work

In the case of `N=C(N)NCCC[C@H](NC(=O)CN)C(=O)NCC(=O)N[C@@H](CC(=O)O)C(=O)N[C@@H](CO)C(=O)N1CCC[C@H]1C(=O)O` [GRGDSP, glycine-arginine-glycine-aspartate-serine-proline], the “reversibility of inhibition of tumor cell attachment” value [1] is reported as “reversibly inhibited” and the “concentrations at which tumor cell attachment was inhibited” value [2] is reported as “greater than 10 mg/ml”.

For `N=C(N)NCCC[C@H](NC(=O)CN)C(=O)NCC(=O)N[C@@H](CC(=O)O)C(=O)N[C@@H](CO)C(=O)O` [GRGDS], the “infection from use of the agents” value ([3]; mouse, in vivo) was “No evidence of infection”, the wound healing process ([3]; mouse, in vivo) was “nor was the wound healing process delayed” and the “average volume of tumors formed in other animals” value ([3]; versus control animals) was “significantly smaller”. The “formation of tumors in animals” value ([3]; wound irrigation) was “inhibited formation of a significant percentage of tumors”.

With `N=C(N)NCCC[C@H](NC(=O)CN)C(=O)NCC(=O)N[C@@H](CCC(=O)O)C(=O)N[C@@H](CO)C(=O)N1CCC[C@H]1C(=O)O` [GRGESP, glycine-arginine-glycine-glutamate-serine-proline] (H-GRGESP-OH) the “attachment of B16 melanoma cells” value ([2]; compared with GRGDSP) was “inhibited attachment of B16 melanoma cells but was less effective”.

With `O=C(O)[C@@H]1CCN1` [LACA, L-azetidine-2-carboxylic acid] the “reversibility of inhibition of tumor cell attachment” value [1] was “reversibly inhibited” and the minimal effective concentration ([2]; Mus musculus, B16-F10, read-out: doses at which tumor cell attachment was inhibited) was greater than 25 µg/mL.

For `[Na+].[O-]Cl` [sodium hydrochlorite], the preventing tumor growth ([4]; 0.5% solution buffered to pH 9) is given as “as effective as the above chemicals” and the “toxicity to the animal” value ([4]; in vivo, pH 9) is given as “considerably less toxic”.

For monoxychlorosene, the “toxic effects locally and systemically” value ([4]; in vivo) is listed as “highly toxic effects”, the toxicity to tissues ([4]; in vivo) is listed as “toxic to tissues” and the wound healing process ([4]; in vivo) is listed as “delayed the wound healing process”. For the same compound, the preventing tumor growth ([4]; one percent solution) was “ineffective” and the preventing tumor growth ([4]; two percent solutions) was “effective”.
